Source: patent EP0153845A2, “CRF analogs” (THE SALK INSTITUTE FOR BIOLOGICAL STUDIES, priority 1984, dated 1985)
Square brackets hold non-standard residues; d marks the D form. Ends that are not written are not given here. Peptide text beside a SMILES is read from it. hArg = N=C(N)NCCCC[C@H](N)C(=O)O; Nle = CCCC[C@H](N)C(=O)O; Orn = NCCC[C@H](N)C(=O)O

Tests used:
[1] = target: T1, cultured rat pituitary cells (Rattus norvegicus, UniProt P35353); assay: Stimulation of ACTH and β-endorphin secretion by cultured rat pituitary cells (general procedure of Example III); type: cell-based; conditions: for secretion of ACTH and β-END-LI: general procedure of Example III
T1 sequence (P35353 24-415): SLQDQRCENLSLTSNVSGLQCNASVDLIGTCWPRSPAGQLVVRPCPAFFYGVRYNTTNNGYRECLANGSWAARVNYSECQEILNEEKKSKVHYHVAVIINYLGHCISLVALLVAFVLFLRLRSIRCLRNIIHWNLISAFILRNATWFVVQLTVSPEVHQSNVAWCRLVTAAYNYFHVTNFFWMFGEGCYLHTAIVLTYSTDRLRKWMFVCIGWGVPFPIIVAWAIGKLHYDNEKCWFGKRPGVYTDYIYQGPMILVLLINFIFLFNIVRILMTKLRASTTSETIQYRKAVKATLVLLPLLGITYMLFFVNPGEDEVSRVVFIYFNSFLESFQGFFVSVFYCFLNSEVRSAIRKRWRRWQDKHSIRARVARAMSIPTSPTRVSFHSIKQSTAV
Description: The synthetic peptide AHC and oCRF were examined for their effects on the secretion of ACTH and B-endorphin in vitro and was also in vivo. The potency of synthetic oCRF to stimulate the secretion of ACTH and β-endorphin by cultured rat pituitary cells was measured using the procedure as generally set forth in Endocrinology, 91, 562 (1972). […] In.vivo testing is carried out using the general procedure set forth in C. Rivier et al., Science, 218, 377 (1982).

[2] = Lowering of blood pressure, in vivo testing by the general procedure of Example III

| Molecule | secretion of ACTH and β-END-LI [1] | lowering of blood pressure [2] | secretory response to maximal concentrations ([1]; maximal (1-5 nM) concentrations) |
| --- | --- | --- | --- |
| H-YSEEPPISLDLTFHLLREVLEMARAEQLAEQAHSNRKLMEII-NH2 [[Tyr-Ser^1, Glu^29]-rCRF] | stimulates | very significant lowering of blood pressure | – |
| H-SEEPPISLDLTLELLREMLEME[Orn]AEKEAEQAALNRLLLEEA-NH2 | stimulates | very significant lowering of blood pressure | – |
| H-SEEPPISLDLTFHLLREVLE[Nle]A[hArg]AEQLAQQAHLNRKLMEE[Nle]-NH2 | stimulates | very significant lowering of blood pressure | – |
| H-SEEPPIS[Nle]DLSFHLLREVLEMARAEQLAQQAHLNRKLMEEI-NH2 [[Nle^8, Ser^11, Leu^33, Glu^40]-rCRF] | stimulates | very significant lowering of blood pressure | – |
| SEEPPISLDLTFHLLREVLEMTRAEQLAEQAHSNRKLMEEI-NH2 [[Thr^22, Glu^29,40]-rCRF] | stimulates | very significant lowering of blood pressure | – |
| H-SQEPPISLDLTFHLLREVLE[Nle]TKADQLAEQAHSNRKLLDIA-NH2 [[Nle^21,Glu^29]-oCRF] | stimulates | very significant lowering of blood pressure | – |
| H-SQEPPISLDLTFHLLREVLEMTRADQLAQQAHSNRRLLDIA-NH2 [[Arg^23,36]-oCRF] | – | very significant lowering of blood pressure | – |
| CC[C@H](C)[C@H](NC(=O)[C@@H](NC(=O)[C@H](CC(=O)O)NC(=O)[C@H](CC(C)C)NC(=O)[C@H](CC(C)C)NC(=O)[C@H](CC(C)C)NC(=O)[C@H](CCCNC(=N)N)NC(=O)[C@H](CC(N)=O)NC(=O)[C@H](CC(N)=O)NC(=O)[C@H](C)NC(=O)[C@H](C)NC(=O)[C@H](CCC(N)=O)NC(=O)[C@H](CCC(=O)O)NC(=O)[C@H](CCCCN)NC(=O)[C@H](CCC(=O)O)NC(=O)[C@H](CCCCN)NC(=O)[C@H](CCC(=O)O)NC(=O)[C@H](CCC(N)=O)NC(=O)[C@H](CCCCN)NC(=O)[C@H](CCCNC(=N)N)NC(=O)[C@H](C)NC(=O)[C@H](CCC(=O)O)NC(=O)[C@@H](NC(=O)[C@H](CCSC)NC(=O)[C@H](CCCCN)NC(=O)[C@H](CCCNC(=N)N)NC(=O)[C@H](CC(C)C)NC(=O)[C@H](CC(C)C)NC(=O)[C@H](CCC(=O)O)NC(=O)[C@H](CC(C)C)NC(=O)[C@H](CO)NC(=O)[C@H](CC(C)C)NC(=O)[C@H](CC(=O)O)NC(=O)[C@@H](NC(=O)[C@H](CO)NC(=O)[C@@H](NC(=O)[C@@H]1CCCN1C(=O)[C@@H]1CCCN1C(=O)CNC(=O)[C@@H]1CCC(=O)N1)[C@@H](C)CC)[C@@H](C)CC)[C@@H](C)CC)[C@@H](C)CC)C(N)=O | stimulates | very significant lowering of blood pressure | – |
| H-SQEPPISLDLTFHLLREMLEMAKAEQEAEQAALNRLLLEEA-NH2 [AHC] | – | – | at a plateau level |
| CCCC[C@H](NC(=O)[C@H](CCC(=O)O)NC(=O)[C@H](CC(C)C)NC(=O)[C@H](CCCC)NC(=O)[C@H](CCC(=O)O)NC(=O)[C@H](CCCNC(=N)N)NC(=O)[C@H](CC(C)C)NC(=O)[C@H](CC(C)C)NC(=O)[C@H](Cc1c[nH]cn1)NC(=O)[C@H](Cc1ccccc1)NC(=O)[C@@H](NC(=O)[C@H](CC(C)C)NC(=O)[C@H](CC(=O)O)NC(=O)[C@H](CC(C)C)NC(=O)[C@H](CO)NC(=O)[C@@H](NC(=O)[C@@H]1CCCN1C(=O)[C@H]1CCCN1)[C@@H](C)CC)[C@@H](C)O)C(=O)N[C@@H](C)C(=O)N[C@@H](CCCCN)C(=O)N[C@@H](C)C(=O)N[C@@H](CCC(=O)O)C(=O)N[C@@H](CCC(N)=O)C(=O)N[C@@H](CCC(=O)O)C(=O)N[C@@H](C)C(=O)N[C@@H](CCC(=O)O)C(=O)N[C@@H](CCC(N)=O)C(=O)N[C@@H](C)C(=O)N[C@@H](C)C(=O)N[C@@H](CC(C)C)C(=O)N[C@@H](CC(N)=O)C(=O)N[C@@H](CCCNC(=N)N)C(=O)N[C@@H](CC(C)C)C(=O)N[C@@H](CC(C)C)C(=O)N[C@@H](CC(C)C)C(=O)N[C@@H](CCC(=O)O)C(=O)N[C@@H](CCC(=O)O)C(=O)N[C@@H](C)C(N)=O [[D-Pro^4, Nle^18,21]-AHC(4-41)] (H-[dP]PISLDLTFHLLRE[Nle]LE[Nle]AKAEQEAEQAALNRLLLEEA-NH2) | – | very significant lowering of blood pressure | – |
| H-SEEPPISLELTFHLLREVLE[Nle]ARAEQLAEQAHLNRKLMEII-NH2 [[Glu^9, Nle^21, Glu^29, Leu^33]-rCRF] | stimulates | very significant lowering of blood pressure to a greater extent than rCRF | – |
| CC[C@H](C)[C@H](NC(=O)[C@H](CCC(=O)O)NC(=O)[C@H](CC(=O)O)NC(=O)[C@H](CCSC)NC(=O)[C@H](CC(C)C)NC(=O)[C@H](CCCCNC(=N)N)NC(=O)[C@H](CCCNC(=N)N)NC(=O)[C@H](CC(N)=O)NC(=O)[C@H](CC(N)=O)NC(=O)[C@H](C)NC(=O)[C@H](C)NC(=O)[C@H](CCC(N)=O)NC(=O)[C@H](CCC(N)=O)NC(=O)[C@H](CCCCN)NC(=O)[C@H](CC(C)C)NC(=O)[C@H](CCCCN)NC(=O)[C@H](CCC(=O)O)NC(=O)[C@H](CCC(N)=O)NC(=O)[C@H](CCCCN)NC(=O)[C@H](CCC(=O)O)NC(=O)[C@@H](NC(=O)[C@H](CCC(=O)O)NC(=O)[C@@H](NC(=O)[C@H](CCSC)NC(=O)[C@H](CCCCN)NC(=O)[C@H](CCCNC(=N)N)NC(=O)[C@H](CC(C)C)NC(=O)[C@H](CC(C)C)NC(=O)[C@H](CCC(=O)O)NC(=O)[C@H](CC(C)C)NC(=O)[C@H](CO)NC(=O)[C@H](CC(C)C)NC(=O)[C@H](CC(=O)O)NC(=O)[C@@H](NC(=O)[C@H](CO)NC(=O)[C@@H](NC(=O)[C@@H]1CCCN1C(=O)[C@@H]1CCCN1C(=O)CNC(=O)[C@@H]1CCC(=O)N1)[C@@H](C)CC)[C@@H](C)CC)[C@@H](C)CC)[C@@H](C)CC)C(N)=O [[Leu^26, Har^35, Met, Glu^39]-sauvagine] | stimulates | very significant lowering of blood pressure | – |
| H-SEEPPISLDLTFHLLREVLE[Nle]ARAEQLAQQAYLNRKLMEEI-NH2 [[Nle^21, Tyr^32, Leu^33, Glu^40]-rCRF] | stimulates | very significant lowering of blood pressure to a greater extent than rCRF | – |
| H-PPISLDLTFHLLREVLEMARAEQLAQQAHLNRKLMEEI-NH2 | stimulates | very significant lowering of blood pressure | – |
| H-SQEPPISLDLTFHLLRE[Nle]LE[Nle]AKAEQEAEQAALNRLLLEEA-NH2 [[Nle^18, ^21]-AHC] | stimulates | very significant lowering of blood pressure | – |
| H-PPISIDLSLELLRKMIEIAKQEKEKEQAANNRLLMDTI-NH2 | stimulates | very significant lowering of blood pressure | – |
| H-SQEPPISLDLTFHLLRE[Nle]LE[Nle]TKADQLRQQAHSNRKLLDIA-NH2 [[Nle^18,21,Arg^28]-oCRF] | stimulates | very significant lowering of blood pressure | – |
| CCCC[C@H](NC(=O)[C@H](CCC(=O)O)NC(=O)[C@H](CC(C)C)NC(=O)[C@H](CCCC)NC(=O)[C@H](CCC(=O)O)NC(=O)[C@H](CCCNC(=N)N)NC(=O)[C@H](CC(C)C)NC(=O)[C@H](CC(C)C)NC(=O)[C@H](Cc1c[nH]cn1)NC(=O)[C@H](Cc1ccccc1)NC(=O)[C@@H](NC(=O)[C@H](CC(C)C)NC(=O)[C@H](CC(=O)O)NC(=O)[C@H](CC(C)C)NC(=O)[C@H](CO)NC(=O)[C@@H](NC(=O)[C@@H]1CCCN1C(=O)[C@H]1CCCN1C(=O)[C@H](N)Cc1ccc(O)cc1)[C@@H](C)CC)[C@@H](C)O)C(=O)N[C@@H](C)C(=O)N[C@@H](CCCCN)C(=O)N[C@@H](C)C(=O)N[C@@H](CCC(=O)O)C(=O)N[C@@H](CCC(N)=O)C(=O)N[C@@H](CCC(=O)O)C(=O)N[C@@H](C)C(=O)N[C@@H](CCC(=O)O)C(=O)N[C@@H](CCC(N)=O)C(=O)N[C@@H](C)C(=O)N[C@@H](C)C(=O)N[C@@H](CC(C)C)C(=O)N[C@@H](CC(N)=O)C(=O)N[C@@H](CCCNC(=N)N)C(=O)N[C@@H](CC(C)C)C(=O)N[C@@H](CC(C)C)C(=O)N[C@@H](CC(C)C)C(=O)N[C@@H](CCC(=O)O)C(=O)N[C@@H](CCC(=O)O)C(=O)N[C@@H](C)C(N)=O [[D-Tyr^3, D-Pro^4, Nle^18,21]-AHC(3-41)] (H-[dY][dP]PISLDLTFHLLRE[Nle]LE[Nle]AKAEQEAEQAALNRLLLEEA-NH2) | – | very significant lowering of blood pressure | – |
